SMILES strings stand for the structures.

Holding throughout (type): biochemical
Assay [1] deals with T1, c-Src kinase (Homo sapiens, UniProt P12931).
T1 construct: purchased Millipore (KinaseProfiler service); also Reaction Biology Corp. (Kinase Hotspot)
Nature of the assay: c-Src kinase inhibition assay (KinaseProfiler / Kinase Hotspot). As to conditions: compound at 1 μM; read-out: % Inhibition @1 μM cSrc. The method, then:
(§1) This example illustrated c-Src kinase, Aurora-A kinase, Flt3 kinase, Ret kinase and TrkA Kinase Assays of selected Compounds from this invention (referred to Daniele Fancelli et al, J. Med. Chem., 2006, 49 (24), pp 7247-7251). The KinaseProfiler™ Service Assay Protocols (Millipore) were used to test the kinase inhibiting activity of novel compounds from this invention. To do this, the buffer composition was as: 20 mM MOPS, 1 mM EDTA, 0.01% Brij-35, 5% Glycerol, 0.1% β-mercaptoethanol, 1 mg/mL BSA. Test compounds were initially dissolved in DMSO at the desired concentration, then serially diluted to the kinase assay buffer. In a final reaction volume of 25 μL, Aurora-A(h) (5-10 mU) is incubated with 8 mM MOPS pH 7.0, 0.2 mM EDTA, 200 μM LRRASLG (Kemptide), 10 mM MgAcetate and [γ^33P-ATP]. The reaction was initiated by the addition of the MgATP mix. After incubation for 40 minute at room temperature, the reaction was stopped by addition of 5 μL of a 3% phosphoric acid solution. 10 μL of the reaction was then spotted onto a P30 filtermat and washed three times for 5 minutes in 50 mM phosphoric acid and once in methanol prior to drying and scintillation counting. Wells containing substrate but no kinase and wells containing a phosphopeptide control were used to set 0% and 100% phosphorylation value, receptively.
(§2) Also Kinase Hotspot^SM kinase assay was used to test the compounds for IC50 or % inhibitions (Reaction Biology Corp.). Inhibitor IC50 values were determined by titration of compound at the optimal kinase concentration (Kinase EC50).

For assay [2], the target named is T2, Aurora-A(h) (Homo sapiens, UniProt O14965).
T2 construct: purchased Millipore (KinaseProfiler service); also Reaction Biology Corp. (Kinase Hotspot)
T2 sequence (O14965 1-403): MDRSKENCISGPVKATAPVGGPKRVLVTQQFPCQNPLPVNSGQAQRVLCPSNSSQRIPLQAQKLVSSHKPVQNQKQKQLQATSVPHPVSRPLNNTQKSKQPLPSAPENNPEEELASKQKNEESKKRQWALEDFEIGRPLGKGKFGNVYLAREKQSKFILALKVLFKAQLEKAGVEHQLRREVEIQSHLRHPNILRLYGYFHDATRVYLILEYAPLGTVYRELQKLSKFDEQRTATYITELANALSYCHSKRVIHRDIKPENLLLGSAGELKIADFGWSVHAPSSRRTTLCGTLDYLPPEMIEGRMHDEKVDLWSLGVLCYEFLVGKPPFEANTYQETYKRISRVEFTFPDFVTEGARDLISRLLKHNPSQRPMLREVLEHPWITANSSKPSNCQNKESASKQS
The assay can be described thus: Aurora-A kinase inhibition assay (KinaseProfiler / Kinase Hotspot). The following applies: compound at 1 μM. As to the method:
as §1, §2

For assay [3], the target named is T3, TrkA Kinase (Homo sapiens, UniProt P04629).
T3 construct: purchased Millipore (KinaseProfiler service); also Reaction Biology Corp. (Kinase Hotspot)
T3 sequence (P04629 33-796): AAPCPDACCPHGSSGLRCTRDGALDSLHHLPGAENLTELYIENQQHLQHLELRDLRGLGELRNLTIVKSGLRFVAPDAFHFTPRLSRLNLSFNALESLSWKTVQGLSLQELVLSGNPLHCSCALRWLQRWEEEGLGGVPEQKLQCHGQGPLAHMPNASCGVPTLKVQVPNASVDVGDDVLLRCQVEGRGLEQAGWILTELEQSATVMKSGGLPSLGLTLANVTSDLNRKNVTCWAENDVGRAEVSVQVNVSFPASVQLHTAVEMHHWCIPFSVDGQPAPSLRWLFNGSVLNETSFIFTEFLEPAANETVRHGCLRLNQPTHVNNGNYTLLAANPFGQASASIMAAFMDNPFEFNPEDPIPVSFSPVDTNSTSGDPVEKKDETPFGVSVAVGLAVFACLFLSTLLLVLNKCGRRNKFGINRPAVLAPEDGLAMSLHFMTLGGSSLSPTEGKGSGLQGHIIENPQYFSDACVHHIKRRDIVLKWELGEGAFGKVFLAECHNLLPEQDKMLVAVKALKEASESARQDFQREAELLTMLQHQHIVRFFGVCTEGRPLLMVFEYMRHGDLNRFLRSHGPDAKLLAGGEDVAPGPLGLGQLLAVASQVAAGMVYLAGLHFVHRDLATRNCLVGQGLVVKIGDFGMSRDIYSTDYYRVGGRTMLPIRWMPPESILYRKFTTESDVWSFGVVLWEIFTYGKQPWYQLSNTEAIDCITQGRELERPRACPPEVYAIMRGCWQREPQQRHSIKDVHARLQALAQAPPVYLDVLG
Nature of the assay: TrkA kinase inhibition assay (KinaseProfiler / Kinase Hotspot). The following applies: compound at 1 μM. As to the method:
as §1, §2

The target in assay [4] is T4, Flt3 kinase (Homo sapiens, UniProt P36888).
T4 construct: purchased Millipore (KinaseProfiler service); also Reaction Biology Corp. (Kinase Hotspot)
T4 sequence (P36888 27-993): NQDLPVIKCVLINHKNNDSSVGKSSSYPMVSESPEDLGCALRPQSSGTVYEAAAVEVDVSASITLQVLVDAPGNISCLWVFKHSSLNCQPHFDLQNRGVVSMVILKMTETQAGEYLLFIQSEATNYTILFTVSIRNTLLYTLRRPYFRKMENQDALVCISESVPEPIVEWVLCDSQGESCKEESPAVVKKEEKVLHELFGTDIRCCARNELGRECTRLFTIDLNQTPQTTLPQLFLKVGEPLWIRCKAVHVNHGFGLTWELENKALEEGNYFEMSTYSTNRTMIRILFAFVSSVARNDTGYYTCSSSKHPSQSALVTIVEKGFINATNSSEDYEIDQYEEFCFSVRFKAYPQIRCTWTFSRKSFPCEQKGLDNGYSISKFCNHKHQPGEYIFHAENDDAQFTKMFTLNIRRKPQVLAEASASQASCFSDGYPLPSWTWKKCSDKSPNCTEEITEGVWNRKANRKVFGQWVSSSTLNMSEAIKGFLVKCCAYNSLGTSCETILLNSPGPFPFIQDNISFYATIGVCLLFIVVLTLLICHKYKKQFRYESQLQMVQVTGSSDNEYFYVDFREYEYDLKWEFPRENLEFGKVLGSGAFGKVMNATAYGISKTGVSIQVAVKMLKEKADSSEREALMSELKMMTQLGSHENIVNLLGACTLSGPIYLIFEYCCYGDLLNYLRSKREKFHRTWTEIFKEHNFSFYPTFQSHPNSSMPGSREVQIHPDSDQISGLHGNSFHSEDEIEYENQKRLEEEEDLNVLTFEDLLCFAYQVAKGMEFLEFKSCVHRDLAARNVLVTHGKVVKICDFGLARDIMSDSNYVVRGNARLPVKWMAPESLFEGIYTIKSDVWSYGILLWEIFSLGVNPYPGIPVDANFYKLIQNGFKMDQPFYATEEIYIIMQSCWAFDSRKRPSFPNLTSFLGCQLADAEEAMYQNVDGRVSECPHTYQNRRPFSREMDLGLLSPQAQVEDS
Nature of the assay: Flt3 kinase inhibition assay (KinaseProfiler / Kinase Hotspot). The following applies: compound at 1 μM. The method, then: as §1, §2

Assay [5] concerns the target T5, Ret kinase (Homo sapiens, UniProt P07949).
T5 construct: purchased Millipore (KinaseProfiler service); also Reaction Biology Corp. (Kinase Hotspot)
Nature of the assay: Ret kinase inhibition assay (KinaseProfiler / Kinase Hotspot). The following applies: compound at 1 μM. The method, then: as §1, §2

T1 sequence (P12931 whole entry): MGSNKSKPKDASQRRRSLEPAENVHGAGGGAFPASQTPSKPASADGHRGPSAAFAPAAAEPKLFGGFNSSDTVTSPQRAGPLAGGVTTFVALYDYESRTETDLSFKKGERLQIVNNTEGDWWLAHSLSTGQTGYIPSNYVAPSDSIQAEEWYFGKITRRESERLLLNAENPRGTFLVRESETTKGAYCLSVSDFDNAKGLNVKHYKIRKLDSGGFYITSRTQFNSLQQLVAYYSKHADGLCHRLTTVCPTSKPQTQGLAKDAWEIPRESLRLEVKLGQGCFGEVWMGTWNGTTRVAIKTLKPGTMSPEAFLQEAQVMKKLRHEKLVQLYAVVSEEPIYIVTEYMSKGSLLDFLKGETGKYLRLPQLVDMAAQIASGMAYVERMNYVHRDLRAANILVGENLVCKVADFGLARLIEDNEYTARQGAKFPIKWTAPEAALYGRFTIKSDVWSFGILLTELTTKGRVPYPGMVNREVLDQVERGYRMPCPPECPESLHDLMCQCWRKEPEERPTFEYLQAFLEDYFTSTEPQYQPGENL
T5 sequence (P07949 29-1114): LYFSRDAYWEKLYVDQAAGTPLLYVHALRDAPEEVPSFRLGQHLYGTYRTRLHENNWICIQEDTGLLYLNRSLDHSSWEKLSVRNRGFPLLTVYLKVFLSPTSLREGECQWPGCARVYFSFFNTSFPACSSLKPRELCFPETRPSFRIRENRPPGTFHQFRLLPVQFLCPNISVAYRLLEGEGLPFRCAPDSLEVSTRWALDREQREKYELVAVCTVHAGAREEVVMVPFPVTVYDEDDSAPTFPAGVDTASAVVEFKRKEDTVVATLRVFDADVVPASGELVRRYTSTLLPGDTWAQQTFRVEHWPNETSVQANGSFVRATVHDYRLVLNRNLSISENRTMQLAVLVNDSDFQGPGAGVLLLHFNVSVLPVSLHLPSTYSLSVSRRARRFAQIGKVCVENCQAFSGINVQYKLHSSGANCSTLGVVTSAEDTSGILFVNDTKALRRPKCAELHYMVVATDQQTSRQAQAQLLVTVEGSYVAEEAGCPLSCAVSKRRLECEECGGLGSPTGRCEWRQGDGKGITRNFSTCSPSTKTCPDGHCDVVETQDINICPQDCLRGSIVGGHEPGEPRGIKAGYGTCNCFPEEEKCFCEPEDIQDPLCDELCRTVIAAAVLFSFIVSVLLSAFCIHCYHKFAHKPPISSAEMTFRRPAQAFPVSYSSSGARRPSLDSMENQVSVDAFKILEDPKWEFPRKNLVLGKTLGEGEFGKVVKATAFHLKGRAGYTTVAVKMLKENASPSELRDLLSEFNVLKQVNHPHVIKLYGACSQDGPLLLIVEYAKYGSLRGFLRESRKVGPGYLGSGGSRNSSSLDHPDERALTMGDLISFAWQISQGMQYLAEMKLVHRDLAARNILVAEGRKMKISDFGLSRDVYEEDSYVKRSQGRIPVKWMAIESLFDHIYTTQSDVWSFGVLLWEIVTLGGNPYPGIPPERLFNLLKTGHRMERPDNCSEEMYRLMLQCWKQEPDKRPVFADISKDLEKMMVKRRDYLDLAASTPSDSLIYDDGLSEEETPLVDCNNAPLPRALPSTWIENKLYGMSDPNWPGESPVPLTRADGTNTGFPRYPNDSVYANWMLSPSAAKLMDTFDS

A word on the inhibition: it is the share of the control response that was lost under treatment. `Cc1cnc(Nc2nc(NCc3ccc(F)cc3)nc(N3CCN(C)CC3)n2)s1` [Example 8]: the inhibition at 1 µM in assay [1] was 50 to 90%; in assay [2], 50 to 90%; in assay [3] it was above 90%; in assay [4] it was above 90%; in assay [5] it was 50 to 90%.

In the case of `CN1CCN(c2nc(Nc3cc(-c4ccco4)[nH]n3)nc(SCc3ccccc3)n2)CC1` [Example 15], the inhibition at 1 µM in assay [1] was below 50%; in assay [2] it was below 50%; in assay [3], above 90%; in assay [4], above 90%; in assay [5], below 50%.

On to `C[C@@H](Nc1nc(Nc2cc(-c3ccco3)[nH]n2)nc(N2CCN(C)CC2)n1)c1ccc(F)cc1` [Example 22], for which, in assay [3], the “% Inhibition @1 μM TrkA” value was above 90%. Further, the “% Inhibition @1 μM Flt3” value in assay [4] was above 90%. For the same molecule, the “% Inhibition @1 μM Ret” value in assay [5] was above 90%.

`CC(Nc1nc(Nc2cc(C3CC3)[nH]n2)nc(N2CCN(C)CC2)n1)c1ccc(F)cc1` (stereo not shown) [Example 20]: the inhibition at 1 µM in assay [1] was 50 to 90%; in assay [2], 50 to 90%; in assay [3], 50 to 90%; in assay [4], 50 to 90%; in assay [5], below 50%.

Regarding `CN1CCN(c2nc(NCc3ccccc3)nc(Nc3cc(-c4ccco4)[nH]n3)n2)CC1` [Example 12], the inhibition at 1 µM is 50 to 90% in assay [1]; below 50% in assay [2]; above 90% in assay [3]; above 90% in assay [4]; below 50% in assay [5].

Take `Cc1cnc(Nc2nc(NCc3ccccc3)nc(N3CCN(C)CC3)n2)s1` [Example 7]: the inhibition at 1 µM in assay [1] is 50 to 90%; in assay [2], 50 to 90%; in assay [3], above 90%; in assay [4], above 90%; in assay [5], above 90%.

As to `CN1CCN(c2nc(Nc3cc(-c4ccco4)[nH]n3)nc(OCc3ccccc3)n2)CC1` [Example 14], the inhibition at 1 µM in assay [1] was below 50%; in assay [2], below 50%; in assay [3], above 90%; in assay [4] it was above 90%; in assay [5], below 50%.

Turning to `CN1CCN(c2nc(Nc3cc(-c4ccco4)[nH]n3)nc(N(C)Cc3ccc(F)cc3)n2)CC1` [Example 10], the inhibition at 1 µM was 50 to 90% in assay [1]; 50 to 90% in assay [2]; above 90% in assay [3]; above 90% in assay [4]; below 50% in assay [5].

For the molecule `Cc1cnc(Nc2nc(NCc3ccc4c(c3)OCO4)nc(N3CCN(C)CC3)n2)s1` [Example 6], the inhibition at 1 µM in assay [1] is 50 to 90%; in assay [2], 50 to 90%; in assay [3] it was above 90%; in assay [4], above 90%; in assay [5], 50 to 90%.

For `CN1CCN(c2nc(NCc3ccc(F)cc3)nc(Nc3cc(-c4ccco4)[nH]n3)n2)CC1` [Example 9], the inhibition at 1 µM is 50 to 90% in assay [1]; below 50% in assay [2]; above 90% in assay [3]; above 90% in assay [4]; below 50% in assay [5].

On to `CN1CCN(c2nc(NCc3ccccc3)nc(Nc3ncc(-c4ccccc4)s3)n2)CC1` [Example 19], for which the inhibition at 1 µM in assay [1], in assay [2], in assay [3], in assay [4] and in assay [5] was below 50% throughout.

With `CC(C)c1cnc(Nc2nc(N[C@H](C)c3ccc(F)cc3)nc(N3CCN(C)CC3)n2)s1` [Example 4], the inhibition at 1 µM in assay [1] is 50 to 90%; in assay [2] it was below 50%; in assay [3] it was 50 to 90%; in assay [4], above 90%; in assay [5], below 50%.

On to `C[C@H](Nc1nc(Nc2cc(-c3ccco3)[nH]n2)nc(N2CCN(C)CC2)n1)c1ccc(F)cc1` [Example 21], for which the inhibition at 1 µM in assay [1] was below 50%; in assay [2], below 50%; in assay [3], above 90%; in assay [4], above 90%; in assay [5], above 90%.

On to `CN1CCN(c2nc(Nc3cc(-c4ccco4)[nH]n3)nc(NC(C)(C)c3ccccc3)n2)CC1` [Example 23], for which the inhibition at 1 µM in assay [1] is below 50%; in assay [2], below 50%; in assay [3], above 90%; in assay [4], above 90%; in assay [5] it was above 90%.

As for `CC(C)c1cnc(Nc2nc(N[C@@H](C)c3ccc(F)cc3)nc(N3CCN(C)CC3)n2)s1` [Example 3], the inhibition at 1 µM is above 90% in assay [1]; 50 to 90% in assay [2]; above 90% in assay [3]; above 90% in assay [4]; 50 to 90% in assay [5].

As to `C[C@@H](Nc1nc(Nc2cc(-c3ccco3)[nH]n2)nc(N2CCN(C)CC2)n1)c1ccc(F)cc1` [Example 18], the inhibition at 1 µM in assay [1] was above 90%; in assay [2], below 50%; in assay [3] it was above 90%; in assay [4], above 90%; in assay [5] it was above 90%.

For `CC(C)c1cnc(Nc2nc(NC(C)c3ccc(F)cc3)nc(N3CCN(C)CC3)n2)s1` (stereo not shown) [Example 2], the inhibition at 1 µM is above 90% in assay [1]; below 50% in assay [2]; above 90% in assay [3]; above 90% in assay [4]; below 50% in assay [5].

Turning to `CN1CCN(c2nc(Nc3cc(-c4ccco4)[nH]n3)nc(SCc3ccc(F)cc3)n2)CC1` [Example 11], the inhibition at 1 µM in assay [1] was 50 to 90%; in assay [2], 50 to 90%; in assay [3] it was above 90%; in assay [4], above 90%; in assay [5], below 50%.
